Molecules are shown by their SMILES. pKi: −log10 of the molar value. Bounds are passed on as bounds.

In series [1] the target is T1, Oxytocin receptor (Homo sapiens, UniProt P30559).
T1 sequence (P30559 whole entry): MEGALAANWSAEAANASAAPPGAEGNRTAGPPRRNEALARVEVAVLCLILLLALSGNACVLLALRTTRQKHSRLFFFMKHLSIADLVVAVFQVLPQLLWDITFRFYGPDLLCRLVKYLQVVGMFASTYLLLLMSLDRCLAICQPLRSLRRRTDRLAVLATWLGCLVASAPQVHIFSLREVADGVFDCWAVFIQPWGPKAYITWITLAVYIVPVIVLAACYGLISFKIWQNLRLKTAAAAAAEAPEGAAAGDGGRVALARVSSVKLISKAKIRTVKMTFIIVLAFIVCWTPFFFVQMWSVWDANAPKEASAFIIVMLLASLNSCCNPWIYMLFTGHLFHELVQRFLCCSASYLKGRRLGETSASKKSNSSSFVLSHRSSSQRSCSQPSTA
In words: Binding affinity against cloned human oxytocin receptor from human embryonic kidney cells. Type of series: cell-based.

The nature of series [2]: Half life period after 3 mg/kg iv administration in rat. Type of series: ADME, organism-based. On the set-up: dose 3 mg/kg, route intravenous. The following applies: in vivo.
Series [3] is filed under the species Rattus norvegicus. In words: Compound was evaluated for its ability to antagonize rat OT-induced uterine contractile response in the vehicle treated group by 50%. The series is classed as functional.
In series [4] the target is T2, Oxytocin receptor (Rattus norvegicus, UniProt P70536).
T2 sequence (P70536 whole entry): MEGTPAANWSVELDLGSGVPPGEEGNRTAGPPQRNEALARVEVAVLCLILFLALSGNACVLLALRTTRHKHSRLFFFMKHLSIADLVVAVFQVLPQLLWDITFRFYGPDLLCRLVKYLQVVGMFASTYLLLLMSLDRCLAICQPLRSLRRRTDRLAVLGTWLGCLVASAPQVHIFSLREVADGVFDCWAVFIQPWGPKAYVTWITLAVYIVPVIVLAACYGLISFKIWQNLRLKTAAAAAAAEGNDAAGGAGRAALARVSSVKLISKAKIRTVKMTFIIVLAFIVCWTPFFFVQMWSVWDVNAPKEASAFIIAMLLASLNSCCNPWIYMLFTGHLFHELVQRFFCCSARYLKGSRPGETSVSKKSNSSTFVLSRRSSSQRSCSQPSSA
In words: Binding affinity against oxytocin receptor (rOTr) in DES pretreated rat uterine.

Series [5] in a line: Oral bioavailability in rat. The following applies: in vivo. The series is classed as ADME, organism-based.
Series [6] can be described thus: Half life period after 3 mg/kg iv administration in the rat. On the set-up: dose 3 mg/kg, route intravenous. The following applies: in vivo. Type of series: ADME, organism-based.
For series [7], the system named is Rattus norvegicus. The experiment in a line: Maximum plasma concentration after 20 mg/kg oral administration in rat. The series is classed as ADME, organism-based. On the set-up: dose 20 mg/kg, route oral. Particulars: in vivo.

As for `CCC(Oc1ccc(C(=O)N2CCC(N3C(=O)OCc4ccccc43)CC2)c(OC)c1)c1ccccc1` (stereo not given), the negative-log Ki (pKi) in series [1] was 7.24. The compound `COc1cc(OC(C)c2ccccc2)ccc1C(=O)N1CCC(N2C(=O)OCc3ccccc32)CC1` (stereo not given) came in with a half-life in series [2] of less than 30 min. In series [1], `CCOc1ccc(C(=O)N2CCC(N3C(=O)OCc4ccccc43)CC2)c(OC)c1` showed a pKi of 7.82. On the same count and under the same terms, under `COc1cc(OC(C)C)ccc1C(=O)N1CCC(N2C(=O)OCc3ccccc32)CC1` stands 7.77. Compound `COc1cc(OC(C)c2cccnc2)ccc1C(=O)N1CCC(N2C(=O)OCc3ccccc32)CC1` (stereo not given) yielded an AD50 in series [3] of 1.2 mg/kg. In series [3], `COc1cc(O[C@H](C)c2cc[n+]([O-])cc2)c(F)cc1C(=O)N1CCC(N2C(=O)OCc3ccccc32)CC1` had an AD50 of 0.78 mg/kg. The pKi in series [1] is 8.13; in series [4] it was 8.00.

In the case of `COc1cc(OC2CCN(C(C)=O)CC2)ccc1C(=O)N1CCC(N2C(=O)OCc3ccccc32)CC1`, the bioavailability in series [5] turned out to be 39%. Besides, in series [6], the half-life was approximately 30 min. This compound displayed an AD50 in series [3] of 0.55 mg/kg. The same compound had a pKi in series [1] of 8.03. This compound also yielded a Cmax in series [7] of 3.3 uM equiv. With `COc1ccc(C(=O)N2CCC(N3C(=O)OCc4ccccc43)CC2)c(OC)c1`, the results for the pKi in series [1] and in series [4] were 7.06 and 6.92, respectively.

The term pKi denotes −log10 of the Ki, conventionally taken in molar units. The term half-life denotes the time in which the quantity being followed falls by half. What is called bioavailability is dose-corrected exposure relative to a reference, in per cent. High values mean good availability, low ones poor availability.
